# Results reported in US11330820B2, “Pesticidally active mixtures” (BASF Agrochemical Products B.V., priority 2016, dated 2022).
# Several values for one entry are separate records, joined by “and”; a condition that tells them apart may be missing. Equal values may be shown once.
# Assays:
# Format in all cases: in vivo
# [1] = system: vetch aphid (Megoura viciae); experiment: Control of vetch aphid on broad bean leaf disks, contact or systemic (B.1)
# Protocol: For evaluating control of vetch aphid (Megoura viciae) through contact or systemic means the test unit consisted of 24-well-microtiter plates containing broad bean leaf disks. The compounds or mixtures were formulated using a solution containing 75% by weight water and 25% by weight DMSO. Different concentrations of formulated compounds or mixtures were sprayed onto the leaf disks at 2.5 μl, using a custom built micro atomizer, at two replications.
# (§1) For experimental mixtures in these tests identical volumes of both mixing partners at the desired concentrations respectively, were mixed together.
# After application, the leaf disks were air-dried and 5-8 adult aphids placed on the leaf disks inside the microtiter plate wells. The aphids were then allowed to suck on the treated leaf disks and incubated at 23+1° C., 50+5% RH for 5 days. Aphid mortality and fecundity was then visually assessed.
# [2] = system: Greenhouse Whitefly (Trialeurodes vaporariorum); experiment: Control of greenhouse whitefly, egg plant leaf disk with white fly eggs (B.5)
# Protocol: (§2) For evaluating control of Greenhouse Whitefly (Trialeurodes vaporariorum) the test unit consisted of 96-well-microtiter plates containing a leaf disk of egg plant leaf disk with white fly eggs. The compounds or mixtures were formulated using a solution containing 75% by weight water and 25% by weight DMSO. Different concentrations of formulated compounds or mixtures were sprayed onto the insect diet at 2.5 μl, using a custom built micro atomizer, at two replications. For experimental mixtures in these tests identical volumes of both mixing partners at the desired concentrations respectively, were mixed together.
# After application, microtiter plates were incubated at 23±1° C., 65±5% RH for 6 days. Mortality of hatched crawlers was then visually assessed.
# [3] = system: boll weevil (Anthonomus grandis); experiment: Control of boll weevil, insect diet with eggs (B.3)
# Protocol: For evaluating control of boll weevil (Anthonomus grandis) the test unit consisted of 24-well-microtiter plates containing an insect diet and 20-30 A. grandis eggs.
# as §2, with “The” for “For evaluating control of Greenhouse Whitefly (Trialeurodes vaporariorum) the test unit consisted of 96-well-microtiter plates containing a leaf disk of egg plant leaf disk with white fly eggs. The”, “20” for “2.5”
# After application, microtiter plates were incubated at 23±1° C., 50±5% RH for 5 days. Egg and larval mortality was then visually assessed.
# [4] = system: green peach aphid (Myzus persicae); experiment: Control of green peach aphid through systemic means, artificial diet under membrane (B.2)
# Description: For evaluating control of green peach aphid (Myzus persicae) through systemic means the test unit consisted of 96-well-microtiter plates containing liquid artificial diet under an artificial membrane.
# The compounds or mixtures were formulated using a solution containing 75% by weight water and 25% by weight DMSO. Different concentrations of formulated compounds or mixtures were pipetted into the aphid diet, using a custom built pipetter, at two replications.
# For experimental mixtures in these tests identical volumes of both mixing partners at the desired concentrations respectively were mixed together.
# After application, 5-8 adult aphids were placed on the artificial membrane inside the microtiter plate wells. The aphids were then allowed to suck on the treated aphid diet and incubated at 23±1° C., 50±5% RH for 3 days. Aphid mortality and fecundity was then visually assessed.
# [5] = system: tobacco budworm (Heliothis virescens); experiment: Control of tobacco budworm, insect diet with eggs (B.4)
# Protocol: For evaluating control of tobacco budworm (Heliothis virescens) the test unit consisted of 96-well-microtiter plates containing an insect diet and 15-25 H. virescens eggs.
# The compounds or mixtures were formulated using a solution containing 75% by weight water and 25% by weight DMSO. Different concentrations of formulated compounds or mixtures were sprayed onto the insect diet at 10 μl, using a custom built micro atomizer, at two replications.
# as §1
# After application, microtiter plates were incubated at 28+1° C., 80+5% RH for 5 days. Egg and larval mortality was then visually assessed.
# [6] = 0.8 ppm, aphid mortality and fecundity after 5 days
smiles,measurement,setting,value
"Cn1nc(C(F)(F)C(F)(F)F)c(C(F)(F)F)c1C(=O)Nc1ccc(Cl)c(C(=O)NCc2ccccc2)c1 [II.1, N-[4-Chloro-3-[[(phenylmethyl)amino]carbonyl]phenyl]-1-methyl-3-(1,1,2,2,2-pentafluoroethyl)-4-(trifluoromethyl)-1H-pyrazole-5-carboxamide]",Average Control %,[1]; [6],0%
"CN(C(=O)c1ccccc1)c1cccc(C(=O)Nc2c(Br)cc(C(F)(C(F)(F)F)C(F)(F)F)cc2C(F)(F)F)c1F [compound a), broflanilide]",Average Control %,"[1]; 0.08 ppm, after 5 days",0%
same,Average Control %,[1]; [6],50% and 25%
same,Average Control %,"[2]; 0 + 0.4 ppm, after 6 days",0%
same,Average Control %,"[3]; 0.08 ppm, after 5 days",25%
same,Average Control %,"[4]; 0.08 ppm, after 3 days",0%
same,Average Control %,"[4]; 0.8 ppm, after 3 days",25%
same,Average Control %,"[5]; 0.8 ppm, after 5 days",0%
"CCS(=O)(=O)c1cccnc1-c1nc2cc(C(F)(F)F)cnc2n1C [II.3-1, 2-(3-ethylsulfonyl-2-pyridyl)-3-methyl-6-(trifluoromethyl)imidazo[4,5-b]pyridine]",Average Control %,"[1]; 10 ppm, after 5 days",50%
same,Average Control %,"[2]; 2 + 0 ppm, mortality of hatched crawlers after 6 days",25%
same,Average Control %,"[3]; 50 ppm, egg and larval mortality after 5 days",25%
same,Average Control %,"[4]; 10 ppm, after 3 days",37.5%
"CCN1OC[C@@H](NC(=O)c2ccc(C3=NOC(c4cc(Cl)cc(Cl)c4)(C(F)(F)F)C3)cc2C)C1=O (stereo partly drawn) [II.4-1, 4-[5-(3,5-dichlorophenyl)-5-(trifluoromethyl)-4H-isoxazol-3-yl]-N-[(4R)-2-ethyl-3-oxo-isoxazolidin-4-yl]-2-methyl-benzamide]",Average Control %,"[4]; 2 ppm, aphid mortality and fecundity after 3 days",0%
same,Average Control %,"[5]; 0.08 ppm, egg and larval mortality after 5 days",0%
